Patent US10947558B2, “Compositions and methods for inducing resistance to soybean cyst nematode via RNAi” (priority 2015, dated 2021)

Tested on: C. elegans (N2 wild type)
Assay: RNA interference in C. elegans by soaking L2 worms in HgRPS23 dsRNA (vitality/lethality)
Type: in vivo
Settings: 10 μM, positive control, after one day of soaking
Method: The effectiveness of HgRPS23 siRNA in silencing the worm's ribosomal protein gene was tested in C. elegans, following the previously published protocols (Alkharouf et al., 2007, Peng et al., 2016) with modifications. A T7 promoter sequence (5′-TAATACGACTCACTATAG-3′; SEQ ID NO: 3) was added to the 5′ ends of both the forward and reverse primer to amplify the 225 bp of HgRPS23 from pRD64 by PCR. The amplified PCR product was used to produce the double stranded (ds) in vitro transcript by the MEGAscript®T7 kit (Ambion/Invitrogen, Calsbad, Calif., USA).
The wt N2 strain of C. elegans was obtained from the CGC (Caenorhabditis Genetics Center) and maintained on NGM (Nematode Growth Medium) plates (60 mm petri dishes) at room temperature. The worms were grown and synchronized using protocols from the WormBase (www.wormbase.org). The L2 worms were soaked in 100 μl M9 buffer (22 mM KH2PO4, 4.7 mM NH4Cl, 43.6 mM Na2HPO4 and 2.1 mM NaCl) containing 50 mM octopamine (Sigma, St. Louis, Mo., USA) to increase pharyngeal pumping and 2 mg/ml HgRPS23 dsRNA. The negative control L2 worms were treated by soaking in M9 buffer containing 50 mM octopamine only. The positive control L2 worms were soaked in M9 buffer containing 50 mM octopamine and 10 μM cycloheximide (Sigma, St. Louis, Mo., USA) as a translation inhibitor. C. elegans worms were treated in the wells of a 96-well plate on a gentle shaker. […]

## C[C@@H]1C[C@@H]([C@H](O)CC2CC(=O)NC(=O)C2)C(=O)[C@@H](C)C1 [cycloheximide]
  vitality rate of N2 worms: approximately 20%
